According to publication PMC2847038 (Hippocampus, 2010):

Target: T1, fatty acid amide hydrolase (FAAH) (Rattus norvegicus, UniProt P97612)
T1 sequence (P97612 1-579): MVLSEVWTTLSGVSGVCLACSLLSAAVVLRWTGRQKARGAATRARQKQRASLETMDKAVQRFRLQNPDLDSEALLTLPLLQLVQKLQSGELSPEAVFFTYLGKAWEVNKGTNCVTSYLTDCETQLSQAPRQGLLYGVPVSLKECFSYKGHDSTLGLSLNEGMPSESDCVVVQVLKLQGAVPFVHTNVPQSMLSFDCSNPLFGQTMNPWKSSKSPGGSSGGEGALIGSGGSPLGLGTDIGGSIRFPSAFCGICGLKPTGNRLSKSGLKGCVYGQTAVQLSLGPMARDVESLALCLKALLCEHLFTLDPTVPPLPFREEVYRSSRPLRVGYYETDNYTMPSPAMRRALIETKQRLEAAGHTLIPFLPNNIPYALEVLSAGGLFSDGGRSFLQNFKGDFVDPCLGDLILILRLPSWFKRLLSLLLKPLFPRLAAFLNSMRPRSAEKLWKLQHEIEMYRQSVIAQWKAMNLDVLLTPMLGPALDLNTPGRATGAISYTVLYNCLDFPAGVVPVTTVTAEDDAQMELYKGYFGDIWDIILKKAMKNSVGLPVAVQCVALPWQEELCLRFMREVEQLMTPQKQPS
Assay: Fatty acid amide hydrolase activity assay
Assay type: biochemical, Sprague-Dawley rats
Conditions: hippocampus membranes

CCCCC/C=C\C/C=C\C/C=C\C/C=C\CCCC(=O)NCCO [anandamide, N-arachidonylethanolamide]
Vmax (maximal hydrolytic activity of FAAH) (CON animals): 619.4 +/- 56.9 pmol/mg protein | Vmax (maximal hydrolytic activity of FAAH) (VEx animals): 556.7 +/- 99.4 pmol/mg protein
